# Source: patent US20050197350A1, “Novel quinoline, tetrahydroquinazoline, and pyrimidine derivatives and methods of treatment related to the use thereof” (TAISHO PHARMACEUTICAL CO., LTD., priority 2003, published 2005)
# Tested on: MCH receptors
# Test: MCH receptor activity class (method not given)
# Details: MCH receptor; class by percent of control at 10^-7 M or IC50
row,Structure (SMILES),class
1,Cc1ccc(C(=O)N[C@H]2CC[C@@H](Nc3cc(N(C)C)c4ccccc4n3)CC2)c(F)c1F [compound 60],3 (Class 3 The value of percent of control at 10^−7 M was more than 60% or the value of IC50 was more than 200 nM.)
2,CN(C)c1cc(N[C@H]2CC[C@@H](NC(=O)c3ccc(F)cc3Cl)CC2)nc2ccccc12 [compound 61],3 (Class 3 The value of percent of control at 10^−7 M was more than 60% or the value of IC50 was more than 200 nM.)
3,"CN(C)c1cc(N[C@H]2CC[C@@H](NC(=O)c3ccc(F)c(Cl)c3F)CC2)nc2ccccc12 [compound 62, 3-chloro-N-(cis-4-{[4-(dimethylamino)quinolin-2-yl]amino}cyclohexyl)-2,4-difluorobenzamide]",2 (Class 2: The value of percent of control at 10^−7 M was from 40% to 60% or the value of IC′50 was from 50 nM to 200 nM.)
4,CN(C)c1cc(N[C@H]2CC[C@@H](NC(=O)CSc3ccccc3)CC2)nc2ccccc12 [compound 63],3 (Class 3 The value of percent of control at 10^−7 M was more than 60% or the value of IC50 was more than 200 nM.)
5,CN(C)c1cc(N[C@H]2CC[C@@H](NC(=O)c3cccc(C(F)(F)F)c3F)CC2)nc2ccccc12 [compound 64],3 (Class 3 The value of percent of control at 10^−7 M was more than 60% or the value of IC50 was more than 200 nM.)
6,CN(C)c1cc(N[C@H]2CC[C@@H](NC(=O)c3cc(C(F)(F)F)ccc3F)CC2)nc2ccccc12 [compound 65],3 (Class 3 The value of percent of control at 10^−7 M was more than 60% or the value of IC50 was more than 200 nM.)
7,COc1cccc(CC(=O)N[C@H]2CC[C@@H](Nc3cc(N(C)C)c4ccccc4n3)CC2)c1 [compound 67],3 (Class 3 The value of percent of control at 10^−7 M was more than 60% or the value of IC50 was more than 200 nM.)
8,CN(C)c1cc(N[C@H]2CC[C@@H](NC(=O)Cc3ccc(F)cc3)CC2)nc2ccccc12 [compound 68],3 (Class 3 The value of percent of control at 10^−7 M was more than 60% or the value of IC50 was more than 200 nM.)
9,COc1ccc(CC(=O)N[C@H]2CC[C@@H](Nc3cc(N(C)C)c4ccccc4n3)CC2)cc1 [compound 69],3 (Class 3 The value of percent of control at 10^−7 M was more than 60% or the value of IC50 was more than 200 nM.)
10,Cc1cc(C(=O)N[C@H]2CC[C@@H](Nc3cc(N(C)C)c4ccccc4n3)CC2)c(C(F)(F)F)o1 [compound 70],3 (Class 3 The value of percent of control at 10^−7 M was more than 60% or the value of IC50 was more than 200 nM.)
11,"Cc1cc(C(=O)N[C@H]2CC[C@@H](Nc3cc(N(C)C)c4ccccc4n3)CC2)c(C)o1 [compound 71, N-(cis-4-{[4-(dimethylamino)quinolin-2-yl]amino}cyclohexyl)-2,5-dimethyl-3-furamide]",1 (Class 1: The value of percent of control at 10^−7 M was less than 40% or the value of IC50 was less than 50 nM.)
12,CCOc1ccccc1C(=O)N[C@H]1CC[C@@H](Nc2cc(N(C)C)c3ccccc3n2)CC1 [compound 72],3 (Class 3 The value of percent of control at 10^−7 M was more than 60% or the value of IC50 was more than 200 nM.)
13,"CN(C)c1cc(N[C@H]2CC[C@@H](NC(=O)c3ccc(F)c(Cl)c3)CC2)nc2ccccc12 [compound 73, 3-chloro-N-(cis-4-{[4-(dimethylamino)quinolin-2-yl]amino}cyclohexyl)-4-fluorobenzamide]",1 (Class 1: The value of percent of control at 10^−7 M was less than 40% or the value of IC50 was less than 50 nM.)
14,"Cc1ccc(C(=O)N[C@H]2CC[C@@H](Nc3cc(N(C)C)c4ccccc4n3)CC2)cc1F [compound 74, N-(cis-4-{[4-(dimethylamino)quinolin-2-yl]amino}cyclohexyl)-3-fluoro-4-methylbenzamide]",2 (Class 2: The value of percent of control at 10^−7 M was from 40% to 60% or the value of IC′50 was from 50 nM to 200 nM.)
15,CN(C)c1cc(N[C@H]2CC[C@@H](NC(=O)CC3CCCC3)CC2)nc2ccccc12 [compound 75],3 (Class 3 The value of percent of control at 10^−7 M was more than 60% or the value of IC50 was more than 200 nM.)
16,"COc1cc(OC)cc(C(=O)N[C@H]2CC[C@@H](Nc3cc(N(C)C)c4ccccc4n3)CC2)c1 [compound 76, N-(cis-4-{[4-(dimethylamino)quinolin-2-yl]amino}cyclohexyl)-3,5-dimethoxybenzamide]",3 (Class 3 The value of percent of control at 10^−7 M was more than 60% or the value of IC50 was more than 200 nM.)
17,CN(C)c1cc(N[C@H]2CC[C@@H](NC(=O)c3ccc(C#N)cc3)CC2)nc2ccccc12 [compound 77],3 (Class 3 The value of percent of control at 10^−7 M was more than 60% or the value of IC50 was more than 200 nM.)
18,"CN(C)c1cc(N[C@H]2CC[C@@H](NC(=O)c3cc(C(F)(F)F)cc(C(F)(F)F)c3)CC2)nc2ccccc12 [compound 78, N-(cis-4-{[4-(dimethylamino)quinolin-2-yl]amino}cyclohexyl)-3,5-bis(trifluoromethyl)benzamide]",2 (Class 2: The value of percent of control at 10^−7 M was from 40% to 60% or the value of IC′50 was from 50 nM to 200 nM.)
19,CN(C)c1cc(N[C@H]2CC[C@@H](NC(=O)/C=C/c3ccc([N+](=O)[O-])cc3)CC2)nc2ccccc12 [compound 79],3 (Class 3 The value of percent of control at 10^−7 M was more than 60% or the value of IC50 was more than 200 nM.)
20,CN(C)c1cc(N[C@H]2CC[C@@H](NC(=O)Cc3ccccc3Br)CC2)nc2ccccc12 [compound 80],3 (Class 3 The value of percent of control at 10^−7 M was more than 60% or the value of IC50 was more than 200 nM.)
21,"Cc1cc(C(=O)N[C@H]2CC[C@@H](Nc3cc(N(C)C)c4ccccc4n3)CC2)ccc1F [compound 81, N-(cis-4-{[4-(dimethylamino)quinolin-2-yl]amino}cyclohexyl)-4-fluoro-3-methylbenzamide]",1 (Class 1: The value of percent of control at 10^−7 M was less than 40% or the value of IC50 was less than 50 nM.)
22,CN(C)c1cc(N[C@H]2CC[C@@H](NC(=O)c3ccccc3SC(F)F)CC2)nc2ccccc12 [compound 82],3 (Class 3 The value of percent of control at 10^−7 M was more than 60% or the value of IC50 was more than 200 nM.)
23,CN(C)c1cc(N[C@H]2CC[C@@H](NC(=O)c3cc(Cl)sc3Cl)CC2)nc2ccccc12 [compound 83],2 (Class 2: The value of percent of control at 10^−7 M was from 40% to 60% or the value of IC′50 was from 50 nM to 200 nM.)
24,CCCSc1ncccc1C(=O)N[C@H]1CC[C@@H](Nc2cc(N(C)C)c3ccccc3n2)CC1 [compound 84],3 (Class 3 The value of percent of control at 10^−7 M was more than 60% or the value of IC50 was more than 200 nM.)
25,CN(C)c1cc(N[C@H]2CC[C@@H](NC(=O)c3cc(C(C)(C)C)nn3Cc3ccccc3)CC2)nc2ccccc12 [compound 85],3 (Class 3 The value of percent of control at 10^−7 M was more than 60% or the value of IC50 was more than 200 nM.)
26,CN(C)c1cc(N[C@H]2CC[C@@H](NC(=O)c3cc(C(C)(C)C)nn3C)CC2)nc2ccccc12 [compound 86],3 (Class 3 The value of percent of control at 10^−7 M was more than 60% or the value of IC50 was more than 200 nM.)
27,C/C(=C\c1ccccc1)C(=O)N[C@H]1CC[C@@H](Nc2cc(N(C)C)c3ccccc3n2)CC1 [compound 87],3 (Class 3 The value of percent of control at 10^−7 M was more than 60% or the value of IC50 was more than 200 nM.)
